What was measured:
ragweed = assay: Test C pre-/postemergence herbicide test; format: in vivo, Ambrosia elatior
Procedure, shortened: (§1)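 Herbicidal effect was judged by eye 13 to 15 days after treatment in the greenhouse, using a 0–100 scale against controls. Chemicals in a non-phytotoxic solvent with surfactant were sprayed onto planted loam/sand soil or onto plants 2 to 18 cm tall in a peat-based growing medium.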

wheat = assay: Test A pre-/postemergence herbicide test; format: in vivo, Triticum aestivum; conditions: Postemergence
Procedure, shortened: (§2)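 Both application timings used compounds in a non-phytotoxic solvent plus surfactant. Pre-emergence: soil sprayed directly after seeding into loam/sand. Post-emergence: foliage of 2–10 cm seedlings (1–2 leaves) sprayed. Injury rated ~10 days later, 0–100.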

oilseed rape = assay: Test C pre-/postemergence herbicide test; format: in vivo, Brassica napus
Procedure, shortened: as §1

waterhemp = assay: Test C pre-/postemergence herbicide test; format: in vivo, Amaranthus rudis
Procedure, shortened: as §1

ducksalad = assay: Test B flooded paddy test; format: in vivo, Heteranthera limosa; conditions: 500 g ai/ha, Flood; scale of 0 to 100 where 0 is no effect and 100 is complete control
Procedure, shortened: (§3)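 Plants grown to 2-leaf stage; pots flooded 3 cm above soil and compound applied directly into paddy water, depth held throughout. Visual rating against untreated controls after 13 to 15 days in greenhouse, 0 (no effect) to 100 (complete control).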

soybean = assay: Test C pre-/postemergence herbicide test; format: in vivo, Glycine max
Procedure, shortened: as §1

pigweed = assay: Test A pre-/postemergence herbicide test; format: in vivo, Amaranthus retroflexus
Procedure, shortened: as §2

giant foxtail = assay: Test A pre-/postemergence herbicide test; format: in vivo, Setaria faberii
Procedure, shortened: as §2

oat, wild = assay: Test C pre-/postemergence herbicide test; format: in vivo, Avena fatua; conditions: Postemergence
Procedure, shortened: as §1

sedge, umbrella = assay: Test B flooded paddy test; format: in vivo, Cyperus difformis; conditions: 500 g ai/ha, Flood; scale of 0 to 100 where 0 is no effect and 100 is complete control
Procedure, shortened: as §3

wheat (winter wheat) = assay: Test C pre-/postemergence herbicide test; format: in vivo, Triticum aestivum; conditions: for Plant response rating, Wheat: Postemergence
Procedure, shortened: as §1

nutsedge, yellow = assay: Test C pre-/postemergence herbicide test; format: in vivo, Cyperus esculentus
Procedure, shortened: as §1

[1] = Postemergence, 31 g ai/ha, scale 0 to 100 (0 no effect, 100 complete control)
[2] = Postemergence, 62 g ai/ha, scale 0 (no effect) to 100 (complete control)
[3] = Postemergence, 125 g ai/ha, scale 0 to 100 (0 no effect, 100 complete control)
[4] = Postemergence, 250 g ai/ha, scale 0 to 100 (0 no effect, 100 complete control)
[5] = Preemergence, 31 g ai/ha, scale 0 to 100, 0 is no effect and 100 is complete control
[6] = Preemergence, 62 g ai/ha, scale 0 to 100 (0 no effect, 100 complete control)
[7] = Preemergence, 125 g ai/ha, scale 0 to 100 (0 no effect, 100 complete control)
[8] = Postemergence, 125 g ai/ha, visual rating on 0 to 100 scale (0 no effect, 100 complete control), approx. 10 days
[9] = Postemergence, 500 g ai/ha, 0 to 100 scale (0 no effect, 100 complete control)
[10] = Preemergence, 125 g ai/ha, 0 to 100 scale where 0 is no effect and 100 is complete control
[11] = Preemergence, 500 g ai/ha, visual rating on 0 to 100 scale (0 no effect, 100 complete control)
[12] = 31 g ai/ha, scale 0 to 100 (0 no effect, 100 complete control)
[13] = 62 g ai/ha, scale 0 (no effect) to 100 (complete control)
[14] = 125 g ai/ha, scale 0 to 100 (0 no effect, 100 complete control)
[15] = 250 g ai/ha, scale 0 to 100 (0 no effect, 100 complete control)

`CN1CC(c2cccc(C(F)(F)F)c2)C(C(=O)Nc2cccc(F)c2F)C1=O` (stereo not drawn) [Compound 305] was tested, and the “Plant response rating, Ragweed” value (ragweed; [1]) was 0, the “Plant response rating, Ragweed” value (ragweed; [2]) was 0 and the “Plant response rating, Ragweed” value (ragweed; [3]) was 40. The “Plant response rating, Ragweed” value (ragweed; [4]) was 45, the “Ragweed plant response rating” value (ragweed; [5]) was 0 and the “Ragweed plant response rating” value (ragweed; [6]) was 15. The “Plant response rating, Ragweed” value (ragweed; [7]) was 35, the “Plant response rating (scale of 0 to 100), Ragweed” value (ragweed; Preemergence, 250 g ai/ha) was 75 and the “Plant response rating, Wheat” value (wheat; 125 g ai/ha, visual rating on 0 to 100 scale (0 no effect, 100 complete control), approx. 10 days) was 60. For the same compound, the “Plant response rating, Wheat” value (wheat; 500 g ai/ha, 0 to 100 scale (0 no effect, 100 complete control)) was 70, the “Plant response rating, Oilseed Rape” value (oilseed rape; [1]) was 0 and the “Plant response rating, Oilseed Rape” value (oilseed rape; [2]) was 0. The “Plant response rating, Oilseed Rape” value (oilseed rape; [3]) was 0, the “Plant response rating, Oilseed Rape” value (oilseed rape; [4]) was 0 and the “Oilseed Rape plant response rating” value (oilseed rape; [5]) was 20. The “Oilseed Rape plant response rating” value (oilseed rape; [6]) was 60, the “Plant response rating, Oilseed Rape” value (oilseed rape; [7]) was 80 and the “Plant response rating (scale of 0 to 100), Oilseed Rape” value (oilseed rape; Preemergence, 250 g ai/ha) was 90. The “Plant response rating, Waterhemp” value (waterhemp; [1]) was 10, the “Plant response rating, Waterhemp” value (waterhemp; [2]) was 10 and the “Plant response rating, Waterhemp” value (waterhemp; [3]) was 35. The “Plant response rating, Waterhemp” value (waterhemp; [4]) was 40, the “Waterhemp plant response rating” value (waterhemp; [5]) was 40 and the “Waterhemp plant response rating” value (waterhemp; [6]) was 65. For the same compound, the “Plant response rating, Waterhemp” value (waterhemp; [7]) was 80, the “Plant response rating (scale of 0 to 100), Waterhemp” value (waterhemp; Preemergence, 250 g ai/ha) was 80 and the “Plant response rating, Ducksalad” value (ducksalad) was 100. For the same compound, the “Plant response rating, Soybean” value (soybean; [1]) was 10, the “Plant response rating, Soybean” value (soybean; [2]) was 0 and the “Plant response rating, Soybean” value (soybean; [3]) was 0. For the same compound, the “Plant response rating, Soybean” value (soybean; [4]) was 0, the “Soybean plant response rating” value (soybean; [5]) was 0 and the “Soybean plant response rating” value (soybean; [6]) was 0. For the same compound, the “Plant response rating, Soybean” value (soybean; [7]) was 0, the “Plant response rating (scale of 0 to 100), Soybean” value (soybean; Preemergence, 250 g ai/ha) was 0 and the “Plant response rating, Pigweed” value (pigweed; [8]) was 60. For the same compound, the “Plant response rating, Pigweed” value (pigweed; [9]) was 70, the “Plant response rating, Pigweed” value (pigweed; [10]) was 0 and the “Pigweed plant response rating” value (pigweed; [11]) was 40. The “Plant response rating, Foxtail, Giant” value (giant foxtail; [8]) was 80, the “Plant response rating, Foxtail, Giant” value (giant foxtail; [9]) was 80 and the “Plant response rating, Foxtail, Giant” value (giant foxtail; [10]) was 90. The “Foxtail, Giant plant response rating” value (giant foxtail; [11]) was 90, the “Plant response rating, Oat, Wild” value (oat, wild; [12]) was 0 and the “Plant response rating, Oat, Wild” value (oat, wild; [13]) was 0. The “Plant response rating, Oat, Wild” value (oat, wild; [14]) was 0, the “Plant response rating, Oat, Wild” value (oat, wild; [15]) was 30 and the “Plant response rating, Sedge, Umbrella” value (sedge, umbrella) was 0. The “Plant response rating, Wheat” value (wheat (winter wheat); [12]) was 0, the “Plant response rating, Wheat” value (wheat (winter wheat); [13]) was 0 and the “Plant response rating, Wheat” value (wheat (winter wheat); [14]) was 0. The “Plant response rating, Wheat” value (wheat (winter wheat); [15]) was 5, the “Wheat plant response rating” value (wheat (winter wheat); [5]) was 45 and the “Wheat plant response rating” value (wheat (winter wheat); [6]) was 90. The “Plant response rating (scale of 0 to 100), Wheat” value (wheat (winter wheat); Preemergence, 250 g ai/ha) was 90, the “Plant response rating, Nutsedge, Yellow” value (nutsedge, yellow; [1]) was 0 and the “Plant response rating, Nutsedge, Yellow” value (nutsedge, yellow; [2]) was 0. For the same compound, the “Plant response rating, Nutsedge, Yellow” value (nutsedge, yellow; [3]) was 0, the “Plant response rating, Nutsedge, Yellow” value (nutsedge, yellow; [4]) was 0 and the “Nutsedge, Yellow plant response rating” value (nutsedge, yellow; [5]) was 0. The “Nutsedge, Yellow plant response rating” value (nutsedge, yellow; [6]) was 0, the “Plant response rating, Nutsedge, Yellow” value (nutsedge, yellow; [7]) was 0 and the “Plant response rating (scale of 0 to 100), Nutsedge, Yellow” value (nutsedge, yellow; Preemergence, 250 g ai/ha) was 100.
